Source: PubChem BioAssay AID1259420 (Broad Institute, 2018)
Values joined by “and” are separate entries in the source; they are usually repeats but may differ in a detail not shown here. Equal values may be shown once. Records with an inconclusive call do not appear. Active and inactive are the calls of the source. The rule behind the calls is not given here.

Each compound was assayed on Toxoplasma gondii growth in host cells, no IFN-gamma (assay: compound activity on host-cell Toxoplasma growth – dose response (AID 1259420);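 note: host cells were HeLa; final incubation lasted 72 hours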).

Row | SMILES | AC50
1 | Cc1ccc(S(=O)(=O)Nc2ccc3c(c2)C(=O)N([C@H](C)CO)C[C@H](C)[C@H](CN(C)Cc2ccc(C(F)(F)F)cc2)O3)cc1 | 18.5 µM
2 | COc1ccc(C#Cc2ccc([C@@H]3[C@H]4CN(C(=O)NC(C)C)CC(=O)N4[C@H]3CO)cc2)cc1 | > 39 µM (inactive)
3 | CO[C@H]1CCN(Cc2ccoc2)[C@H]2CN(Cc3ccncc3)C[C@@H]12 | > 39 µM (inactive)
4 | COc1cccc(S(=O)(=O)N2CCCCN3[C@@H](CO)[C@@H](c4ccc(C#CCC(C)C)cc4)[C@@H]3C2)c1 | 12.1 µM and 10.1 µM
5 | O=S(=O)(c1cccc(F)c1)N1CC[C@@H]2[C@H]1c1cc(C#Cc3ccccc3F)ccc1N[C@@H]2CO | 17.3 µM
6 | Cc1ccc2c(c1)c(Cn1cc(-c3sccc3C)nn1)nn2C | 31.1 µM and 25.4 µM
7 | C[C@@H]1CN([C@@H](C)CO)C(=O)Cc2cc(NC(=O)C3CCCCC3)ccc2O[C@@H]1CN(C)Cc1ccc(Cl)c(Cl)c1 | 13.9 µM
8 | O=C(CC1CC1)N1CC[C@@H]2[C@H]1c1cc(-c3ccc(F)cc3)ccc1N[C@@H]2CO | 16.3 µM
9 | O=C(C[C@H]1CC[C@H]2[C@@H](COC[C@@H](O)CN2S(=O)(=O)c2ccccc2F)O1)N1CCC(Cc2ccccc2)CC1 | > 20 µM (inactive)
10 | CS(=O)(=O)NCc1cnc2n1CCN(Cc1cccs1)CC2 | 25.6 µM
11 | CCCCc1ccc(Nc2ncnc3c2cnn3-c2ccc(C)cc2C)cc1 | 11.6 µM
12 | COC(=O)[C@@H]1C[C@@H](N(C)C)CN1S(=O)(=O)c1c(C)ccc2nsnc12 | > 39 µM (inactive)
13 | C/C=C/c1ccc([C@H]2[C@@H](CO)N3CCCCN(S(=O)(=O)c4ccc(OC)cc4)C[C@@H]23)cc1 | 32.2 µM
14 | CCCc1ccc(S(=O)(=O)N2CCC[C@@H]2C(=O)NCCc2csc(-c3ccccc3)n2)cc1 | 18.7 µM
15 | N#C[C@@H]1[C@H](c2ccc(-c3cccc(F)c3)cc2)[C@H](CO)N1C(=O)NC1CCCC1 | 36 µM and 24 µM
16 | COc1cccc(-c2ccc([C@@H]3[C@H]4CN(C(=O)c5cccnc5)CC(=O)N4[C@H]3CO)cc2)c1 | > 39 µM (inactive)
17 | CCCCCCCCCCCCCCCC[N+](C)(C)C | 15.3 µM
18 | Cc1cccc(NC2COC3(CCN(C(=O)c4ccsc4)C3)C2)c1 (centres undefined) | 28.1 µM
19 | CC(C)NC(=O)N1CCC2(CC1)OCCN(CCO)c1ccccc12 | > 39 µM (inactive)
20 | Cc1cc(C)cc(S(=O)(=O)N2CCC3(CC2)NCCN=C3NCc2ccc(C(F)(F)F)cc2)c1 | 18.7 µM
21 | CCOc1ccc(N(Cc2nc(-c3ccc(OC)cc3)oc2C)S(=O)(=O)c2ccccc2)cc1 | 7.28 µM
22 | CCCNC(=O)c1cc(-c2cnc(NCc3ccccc3)nc2)cn1C | 15.1 µM

Row | SMILES | AC50
23 | CCN1CCN(Cc2ccc(Nc3nc(-c4ccc(OC)cc4)nc4ccccc34)cc2)CC1 | 13.5 µM
24 | CC(C)N1CCN(CC#N)C2(CCN(C(=O)c3ccc[nH]3)C2)C1=O (centres undefined) | 37.9 µM
25 | CCc1cnc(N2[C@H](C#N)[C@@H](c3ccc(-c4cccc(F)c4)cc3)[C@@H]2CO)s1 | > 39 µM (inactive)
26 | Cc1ccccc1S(=O)(=O)N1CCCCN2[C@H](CO)[C@H](c3ccc(C#CCN(C)C)cc3)[C@H]2C1 | 33.7 µM
27 | CC(C)NC(=O)N1CC(=O)N2[C@H](C1)[C@@H](c1ccc(/C=C/c3ccccc3)cc1)[C@@H]2CO | 17.9 µM
28 | O=C(Nc1ccc(F)cc1)N1CC(=O)N2[C@H](C1)[C@@H](c1ccc(-c3cccc(F)c3)cc1)[C@@H]2CO | 29.4 µM and 15.6 µM
29 | O=C(C1CCC1)N1CC[C@H]2CN(Cc3cccc(Cl)c3)S(=O)(=O)[C@@H]2CC1 | > 39 µM (inactive)
30 | N#Cc1ccc(-c2ccc3c(c2)[C@@H]2[C@@H](CCN2C(=O)C2CCCCC2)[C@H](CO)N3)cc1 | 18 µM
31 | COc1ccccc1C(=O)Nc1ccc(-c2nc(-c3ccc(C)cc3C)co2)cc1 | 21 µM
32 | N#Cc1cccc(-c2ccc3c(c2)[C@@H]2[C@@H](CCN2S(=O)(=O)c2ccc(F)cc2)[C@@H](CO)N3)c1 | 14.5 µM
33 | COc1ccc(C#Cc2ccc([C@@H]3[C@@H](CO)N4C(=O)CN(C(=O)NC(C)C)C[C@@H]34)cc2)cc1 | > 39 µM (inactive)
34 | Fc1cccc(CN2C[C@@H]3N[C@H](C2)C3c2ccc(/C=C/c3ccccc3)cc2)c1 (some centres undefined) | 17.6 µM
35 | CC(=O)NC1=NN(C(C)=O)C(C)(c2ccccc2)S1 (centres undefined) | > 20 µM (inactive)
36 | Cc1cccc(-c2ccc(C3[C@@H]4CN(Cc5cccc(F)c5)C[C@H]3N4)cc2)c1 (some centres undefined) | 19.4 µM
37 | O=C(NCc1cccnc1)C1CC2CN(Cc3cccc(Cl)c3)CC1O2 (centres undefined) | 4.73 µM
38 | COc1ccc(Cc2cnc(N)nc2N)cc1OC | 25.8 µM
39 | COc1cccc(-c2ccc3c(c2)[C@@H]2[C@@H](CCN2S(=O)(=O)c2ccccc2F)[C@@H](CO)N3)c1 | 16 µM
40 | CCCCCCCCCCCCCCCC[n+]1ccccc1 | 6.86 µM
41 | Clc1cncc(OC[C@H]2CO[C@@H]3CN(Cc4cccs4)C[C@@H]23)c1 | > 39 µM (inactive)
42 | N#C[C@@H]1[C@@H](c2ccc(C3=CCCCC3)cc2)[C@@H](CO)N1S(=O)(=O)c1ccccc1 | > 39 µM (inactive)
43 | COc1ccc(-c2nc3c(s2)CN(S(=O)(=O)c2cc(C)cc(C)c2)CC3)cc1 | 5.99 µM
44 | O=C(C[C@@H]1CC[C@@H]2[C@H](COC[C@@H](O)CN2S(=O)(=O)c2ccccc2)O1)NCC1CCCCC1 | 33.4 µM

Row | SMILES | AC50
45 | O=S(=O)(c1ccccc1F)N1CC[C@@H]2[C@@H](CO)Nc3ccc(C4=CCCCC4)cc3[C@@H]21 | 11.8 µM
46 | O=C(Cc1cccnc1)N1CC(=O)N2[C@H](CO)[C@@H](c3ccc(C#CC4CCCCC4)cc3)[C@H]2C1 | > 20 µM (inactive)
47 | CCCN1CCC[C@@H]2Cc3[nH]ncc3C[C@H]21 | > 39 µM (inactive)
48 | CSCc1noc(CN2CCCC3(C2)CN(C)C(=O)O3)n1 (centres undefined) | > 39 µM (inactive)
49 | CC(C)N1CCC2(CC1)CC(COCC1CC1)N(c1ncccn1)C2 (centres undefined) | 35.9 µM
50 | OC[C@@H]1Nc2ccc(-c3cccc(F)c3)cc2[C@H]2[C@@H]1CCN2Cc1ccc(F)cc1 | > 20 µM (inactive)
51 | CN(C)C(=O)c1ccc(-c2ccc3c(c2)[C@@H]2[C@@H](CCN2C(=O)C2CCCC2)[C@@H](CO)N3C)cc1 | 17.5 µM
52 | COc1ccc(-c2ccc(C3[C@@H]4CN(C(=O)c5ccc(F)cc5)C[C@H]3N4)cc2)cc1 (some centres undefined) | 24.4 µM and 13.3 µM
53 | Cc1cc(C)n(C)c(=O)c1C(=O)N1CCOC(C(F)(F)F)C1 (centres undefined) | > 39 µM (inactive)
54 | O=C(Nc1cccc(F)c1)N1CCCCN2[C@@H](CO)[C@H](c3ccc(C#Cc4cccnc4)cc3)[C@@H]2C1 | 3.04 µM
55 | O=C(c1cccc(F)c1)N1CCCCN2[C@H](CO)[C@H](c3ccc(C#CC4(O)CCCC4)cc3)[C@H]2C1 | 32.1 µM
56 | OC[C@H]1O[C@@H](n2cnc3c(NC4CCCC4)nc(Cl)nc32)[C@H](O)[C@@H]1O | > 39 µM (inactive)
57 | CCCCOc1ccc2c(=O)c(-c3cc(C(=O)OC)oc3C)c(C(F)(F)F)oc2c1C | 8.86 µM and 8.94 µM
58 | Cc1cc(C(C)(C)CC(C)(C)C)ccc1OCCOCC[N+](C)(C)Cc1ccccc1 | 12.5 µM
59 | O=S1(=O)c2ccccc2O[C@H]2CCN(Cc3ccc(Cl)cc3)CC[C@H]2N1CC1CC1 | 22.5 µM
60 | O=C(NC1CCCC1)N1CC[C@H]2CN(Cc3ccc(Cl)cc3)S(=O)(=O)[C@@H]2CC1 | 28.5 µM
61 | Cc1ccccc1-c1ccc(C2[C@@H]3CN(C(=O)c4ccc(F)cc4)C[C@H]2N3)cc1 (some centres undefined) | > 42 µM (inactive)
62 | CN1c2ccc(C3=CCCCC3)cc2[C@@H]2[C@@H](CCN2C(=O)c2ccc3c(c2)OCO3)[C@@H]1CO | 27.5 µM
63 | CCCNC(=O)N1[C@H](C#N)[C@H](c2ccc(-c3ccccc3F)cc2)[C@@H]1CO | 4.65 µM
64 | COc1cccc(CN2C[C@@H]3N[C@H](C2)C3c2ccc(-c3ccccc3C)cc2)c1 (some centres undefined) | 12.3 µM
